Results as given in PubChem BioAssay AID1963959 (Molecular Pharmacology Branch, DTP, NCI, 2024).

Test system: T-47D spheroids with HUVEC/MSC, viability
Test: Anticancer human tumor T-47D cell line growth inhibition [PI3K];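 further: spheroids exposed to agents for seven days before reading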;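 on viability, T/C: percent of DMSO vehicle control luminescence so 100% = untreated growth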
Conditions: for IC50: curve of first compound; for viability, T/C: stronger effect = lower value; active means viability on the fitted dose curve at most 10% of control; inactive means the rest
Outline: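 Spheroid viability read-out. Co-cultures contained the tumor line plus HUVEC and human MSCs. Each agent was paired with a PI3K inhibitor (inavolisib, alpelisib, duvelisib, copanlisib) across half-log dilutions starting at clinical Cmax, or at 10 microM when Cmax was unknown.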

[1] = second compound 0.0316 µM, first compound 0.0316 µM
[2] = second compound 0.0316 µM, first compound 0.1 µM
[3] = second compound 0.1 µM, first compound 0.0316 µM
[4] = second compound 0.1 µM, first compound 0.1 µM
[5] = second compound 0.316 µM, first compound 0.0316 µM
[6] = second compound 0.316 µM, first compound 0.1 µM
[7] = second compound 1 µM, first compound 0.0316 µM
[8] = second compound 1 µM, first compound 0.1 µM
[9] = second compound 3.16 µM, first compound 0.0316 µM
[10] = second compound 3.16 µM, first compound 0.1 µM
[11] = second compound 10 µM, first compound 0.0316 µM
[12] = second compound 10 µM, first compound 0.1 µM

Cn1ncnc1[C@H]1c2n[nH]c(=O)c3cc(F)cc(c23)N[C@@H]1c1ccc(F)cc1 + CC(Nc1ncnc2nc[nH]c12)c1cc2cccc(Cl)c2c(=O)n1-c1ccccc1
inactive: viability, T/C (second compound 0.0316 µM, first compound 0.000316 µM) 86.8% | viability, T/C (second compound 0.0316 µM, first compound 0.001 µM) 92.8% | viability, T/C (second compound 0.0316 µM, first compound 0.00316 µM) 79.7% | viability, T/C (second compound 0.0316 µM, first compound 0.01 µM) 94.8% | viability, T/C [1] 99.6% | viability, T/C [2] 80.8% | viability, T/C (second compound 0.1 µM, first compound 0.000316 µM) 110% | viability, T/C (second compound 0.1 µM, first compound 0.001 µM) 82.2% | viability, T/C (second compound 0.1 µM, first compound 0.00316 µM) 99.3% | viability, T/C (second compound 0.1 µM, first compound 0.01 µM) 91.5% | viability, T/C [3] 89.5% | viability, T/C [4] 93.3% | viability, T/C (second compound 0.316 µM, first compound 0.000316 µM) 98.1% | viability, T/C (second compound 0.316 µM, first compound 0.001 µM) 82.9% | viability, T/C (second compound 0.316 µM, first compound 0.00316 µM) 90.6% | viability, T/C (second compound 0.316 µM, first compound 0.01 µM) 100% | viability, T/C [5] 85.6% | viability, T/C [6] 92.1% | viability, T/C (second compound 1 µM, first compound 0.000316 µM) 98.3% | viability, T/C (second compound 1 µM, first compound 0.001 µM) 89.6% | viability, T/C (second compound 1 µM, first compound 0.00316 µM) 102% | viability, T/C (second compound 1 µM, first compound 0.01 µM) 74.5% | viability, T/C [7] 86.5% | viability, T/C [8] 92.6% | viability, T/C (second compound 3.16 µM, first compound 0.000316 µM) 86.3% | viability, T/C (second compound 3.16 µM, first compound 0.001 µM) 90.2% | viability, T/C (second compound 3.16 µM, first compound 0.00316 µM) 88.6% | viability, T/C (second compound 3.16 µM, first compound 0.01 µM) 83.2% | viability, T/C [9] 103% | viability, T/C [10] 96.3% | viability, T/C (second compound 10 µM, first compound 0.000316 µM) 80.7% | viability, T/C (second compound 10 µM, first compound 0.001 µM) 81.7% | viability, T/C (second compound 10 µM, first compound 0.00316 µM) 83.4% | viability, T/C (second compound 10 µM, first compound 0.01 µM) 92.3% | viability, T/C [11] 102% | viability, T/C [12] 83.7%
> 100 nM: IC50 (second compound 0.0316 µM) | IC50 (second compound 0.1 µM) | IC50 (second compound 0.316 µM) | IC50 (second compound 1 µM) | IC50 (second compound 3.16 µM) | IC50 (second compound 10 µM)

C=CC(=O)N1CCN(c2nc(=O)n(-c3c(C)ccnc3C(C)C)c3nc(-c4c(O)cccc4F)c(F)cc23)C(C)C1 (centres undefined) + Cc1nc(NC(=O)N2CCCC2C(N)=O)sc1-c1ccnc(C(C)(C)C(F)(F)F)c1
< 31.6 nM: IC50 (second compound 10 µM)
> 10000 nM: IC50 (second compound 0.0316 µM) | IC50 (second compound 0.1 µM) | IC50 (second compound 0.316 µM) | IC50 (second compound 1 µM) | IC50 (second compound 3.16 µM)
inactive: viability, T/C [1] 112% | viability, T/C [2] 92.4% | viability, T/C (second compound 0.0316 µM, first compound 0.316 µM) 102% | viability, T/C (second compound 0.0316 µM, first compound 1 µM) 84.8% | viability, T/C (second compound 0.0316 µM, first compound 3.16 µM) 88.8% | viability, T/C (second compound 0.0316 µM, first compound 10 µM) 98.5% | viability, T/C [3] 105% | viability, T/C [4] 89.7% | viability, T/C (second compound 0.1 µM, first compound 0.316 µM) 97.2% | viability, T/C (second compound 0.1 µM, first compound 1 µM) 77.8% | viability, T/C (second compound 0.1 µM, first compound 3.16 µM) 116% | viability, T/C (second compound 0.1 µM, first compound 10 µM) 106% | viability, T/C [5] 83.8% | viability, T/C [6] 96% | viability, T/C (second compound 0.316 µM, first compound 0.316 µM) 86.7% | viability, T/C (second compound 0.316 µM, first compound 1 µM) 99% | viability, T/C (second compound 0.316 µM, first compound 3.16 µM) 91.5% | viability, T/C (second compound 0.316 µM, first compound 10 µM) 99.4% | viability, T/C [7] 96.1% | viability, T/C [8] 98% | viability, T/C (second compound 1 µM, first compound 0.316 µM) 84.1% | viability, T/C (second compound 1 µM, first compound 1 µM) 100% | viability, T/C (second compound 1 µM, first compound 3.16 µM) 99.4% | viability, T/C (second compound 1 µM, first compound 10 µM) 101% | viability, T/C [9] 65.1% | viability, T/C [10] 77.5% | viability, T/C (second compound 3.16 µM, first compound 0.316 µM) 77.9% | viability, T/C (second compound 3.16 µM, first compound 1 µM) 75.9% | viability, T/C (second compound 3.16 µM, first compound 3.16 µM) 85.4% | viability, T/C (second compound 3.16 µM, first compound 10 µM) 95.3% | viability, T/C [11] 37% | viability, T/C [12] 36.7% | viability, T/C (second compound 10 µM, first compound 0.316 µM) 41.2% | viability, T/C (second compound 10 µM, first compound 1 µM) 45% | viability, T/C (second compound 10 µM, first compound 3.16 µM) 53% | viability, T/C (second compound 10 µM, first compound 10 µM) 59.5%
